The values below come from US20060264418A1, “6-(2,2,2-Trifluoroethylamino-7-chloro-2,3,4,5-tetrahydro-1h-benzo[d] azephine as a 5-ht2c receptor agonist” (priority 2003, published 2006).

Each structure is given as a SMILES string.

Data set [1] concerns Wistar rats. As to conditions: general statement on standards; cited from earlier work.
Data set [2] deals with male NIH Swiss mice. The data set can be described thus: Marble burying assay (with rotorod). The class given is in vivo, mouse. As to conditions: 30 min. burying session. The source says:
Marble burying in mice has been used to model anxiety disorders including obsessive-compulsive disorders (OCD) due to ethological study of the behavior (e.g. Gyertyan I. “Analysis of the marble burying response: Marbles serve to measure digging rather than evoke burying”, Behavioural Pharmacology 6: 24-31, (1995)) and due to the pharmacological effects of clinical standards (c.f., Njung′E K. Handley S L. “Evaluation of marble-burying behavior as a model of anxiety”, Pharmacology, Biochemistry & Behavior. 38: 63-67, (1991)); Borsini F., Podhorna J., and Marazziti, D. “Do animal models of anxiety predict anxiolytic effects of antidepressants?”, Psychopharmacology 163: 121-141, (2002)). Thus, drugs used in the treatment of generalized anxiety in humans (e.g. benzodiazepines) as well as compounds used to treat OCD (e.g. SSRIs like fluoxetine) decrease burying.
House experimentally-naïve male, NIH Swiss mice (Harlan Sprague-Dawley, Indianapolis, Ind.) weighing between 28-35 g in groups of 12 for at least three days prior to testing in a vivarium with 12 hr. light and dark cycles. Conduct experiments during the light cycle in a dimly lit experimental testing room. Dose mice with vehicle or compound and, after a specified pretreatment interval (generally 30 min.), place each mouse individually on a rotorod (Ugo Basile 7650) operating at a speed of 6 revolutions/min. and observe for falling. After 2 min. on the rotorod, place the mice individually in a 17×28×12 cm high plastic tub with 5 mm sawdust shavings on the floor that are covered with 20 blue marbles (1.5 cm diameter) placed in the center. After 30 min., count the number of marbles buried (⅔ covered with sawdust). Assess the compound's effect on marble burying with Dunnett's test and the effect on rotorod performance by Fisher's exact test.
Clinically effective standard compounds suppress marble burying at doses that are devoid of motor-impairing effects as measured on the rotorod. […]

The test system of data set [3] is male NIH Swiss mice. Kind of data set: Nestlet shredding. As to conditions: 30 min. The class given is in vivo, mouse. The text has this: Mice naturally will construct nests of material available in their living environment. Since this behavior is obsessive in nature, it has been used to model OCD (Mia Li, Denise Morrow and Jeffrey M. Witkin, “Decreases in nestlet shredding of mice by serotonin uptake inhibitors: comparison with marble burying”, Psychopharmacology, submitted Jul. 14, 2003). House experimentally-naïve male, NIH Swiss mice (Harlan Sprague-Dawley, Indianapolis, Ind.) weighing between 28-35 g in groups of 12 for at least three days prior to testing in a vivarium with a 12 hr. light/dark cycle. Conduct experiments during the light cycle in an experimental room with normal overhead fluorescent lighting. Dose mice with vehicle or test compound and after a specified pretreatment interval (generally 30 min.), place the mice individually in a 17×28×12 cm high plastic tub with about 5 mm sawdust shavings on the floor along with a pre-weighed multi-ply gauze pad (51 mm square). After 30 min., weigh the remainder of the gauze pad not removed by the mouse. Determine the weight of the gauze used for nestlet construction by subtraction. Compare the results for test compound treated mice to the results for vehicle control treated mice with Dunnett's test.
Clinically effective OCD treatment standard compounds suppress nestlet shredding at doses that are devoid of motor-impairing effects as measured by the rotorod test. […]

Data set [4] relates to Wistar rats. The data set can be described thus: Schedule-induced polydipsia. The class given is in vivo, rat. The text has this:
Food-deprived rats exposed to intermittent presentations of food will drink amounts of water that are far in excess of their normal daily intake and in excess of their intake when given all of their food at one time (Falk J L. “Production of polydipsia in normal rats by an intermittent food schedule”, Science 133: 195-196, (1961)). This excessive behavior is persistent and has been used to model OCD.
Maintain Wistar rats on a food restricted diet (to maintain 85% free feeding weight), but with free access to water. Train the rats in a behavioral testing chamber to press a lever to receive a food pellet under a fixed interval schedule, such that the rats are rewarded with a 45 mg food pellet the first time they press a lever after a 120 second interval has elapsed. The fixed interval is then reset to 120 seconds and the process repeated. Thus, during a 90 min. test session, the rats can earn a maximum of 45 pellets. The behavioral chamber is also equipped with a water bottle that is weighed before and after the session to determine the amount of water consumed.
Administer test compounds on Tuesdays and Fridays. Determine control day performances on Thursdays. Administer compounds either orally at 60 min. before the beginning of a test session, or subcutaneously at 20 min. before the beginning of a test session. Compare the rates of lever pressing and water consumption for each animal's performance during sessions after test compound treatment with that animal's performance during control sessions, expressed as a percent of the control rate. Average the individual percent of control rates for each dose and calculate the standard error of the mean.
The in vivo efficacy of 5HT2C compounds at the 5HT2C receptor was confirmed by the prevention of effects of the 5HT2C agonists on excessive drinking by co-administration of the 5HT2C receptor antagonist, 6-chloro-5-methyl-N-(2-(2-methylpyridin-3-yl-oxy)pyridin-5-yl)aminocarbonyl)-2,3-dihydroindole.

As usually defined, the melting point is the temperature of the solid-liquid transition.

`FC(F)(F)CNc1c(Cl)ccc2c1CCNCC2` gave a melting point of 183 to 185.2 °C.

Consider `CN(C)CCCN1c2ccccc2CCc2ccc(Cl)cc21` [chlomipramine], for which, in the data set on Wistar rats [1], the “schedule-induced polydipsia, clinically effective OCD treatment standard compounds” value is given as “suppress schedule-induced polydipsia without producing notable changes in motor patterns, food intake, or behavior the following day”.

As for `CN(C)CCCN1c2ccccc2Sc2ccc(Cl)cc21` [chlorpromazine, reference compound], the “marble burying behavior (relative to rotorod performance)” value in the data set with male NIH Swiss mice [2] is reported as “decreased marble burying only at doses that also disrupt rotorod performance”.

Take `C[C@H](N)Cc1ccccc1` [d-amphetamine, reference compound]: the “nestlet shredding (relative to motor effects, rotorod test)” value with male NIH Swiss mice [3] was “decrease nestlet shredding only at doses that produce motoric side effects”. Moreover, the “schedule-induced polydipsia (excessive drinking)” value in the data set on Wistar rats [4] (food restricted rats, 90 min. test session) was “decreases excessive drinking only at behaviorally stimulating doses”. Moreover, the “suppression of excessive drinking with co-administration of the 5-HT2C receptor antagonist” value in the data set with Wistar rats [4] (rats) is “not prevented”.

Take `CNCCC(Oc1ccc(C(F)(F)F)cc1)c1ccccc1` (stereo not shown) [fluoxetine]: in the data set with Wistar rats [1], the “schedule-induced polydipsia, clinically effective OCD treatment standard compounds” value is “suppress schedule-induced polydipsia without producing notable changes in motor patterns, food intake, or behavior the following day”.
